Laboratory results: patent publication US12617813B2, “Glycosylated histone deacetylase inhibitors and methods of making and using the same” (Georgia Tech Research Corporation, priority 2020, dated 2026)

Assays:
[1] = biological target: HDAC2 (Homo sapiens, UniProt Q92769); experiment: HDAC inhibition, HDAC2; assay type: biochemical
[2] = biological target: HDAC1 (Homo sapiens, UniProt Q13547); experiment: HDAC inhibition, HDAC1; assay type: biochemical
[3] = biological target: T1, HDAC6 (Homo sapiens, UniProt Q9UBN7); experiment: HDAC inhibition, HDAC6; assay type: biochemical
T1 sequence (Q9UBN7 1-1215): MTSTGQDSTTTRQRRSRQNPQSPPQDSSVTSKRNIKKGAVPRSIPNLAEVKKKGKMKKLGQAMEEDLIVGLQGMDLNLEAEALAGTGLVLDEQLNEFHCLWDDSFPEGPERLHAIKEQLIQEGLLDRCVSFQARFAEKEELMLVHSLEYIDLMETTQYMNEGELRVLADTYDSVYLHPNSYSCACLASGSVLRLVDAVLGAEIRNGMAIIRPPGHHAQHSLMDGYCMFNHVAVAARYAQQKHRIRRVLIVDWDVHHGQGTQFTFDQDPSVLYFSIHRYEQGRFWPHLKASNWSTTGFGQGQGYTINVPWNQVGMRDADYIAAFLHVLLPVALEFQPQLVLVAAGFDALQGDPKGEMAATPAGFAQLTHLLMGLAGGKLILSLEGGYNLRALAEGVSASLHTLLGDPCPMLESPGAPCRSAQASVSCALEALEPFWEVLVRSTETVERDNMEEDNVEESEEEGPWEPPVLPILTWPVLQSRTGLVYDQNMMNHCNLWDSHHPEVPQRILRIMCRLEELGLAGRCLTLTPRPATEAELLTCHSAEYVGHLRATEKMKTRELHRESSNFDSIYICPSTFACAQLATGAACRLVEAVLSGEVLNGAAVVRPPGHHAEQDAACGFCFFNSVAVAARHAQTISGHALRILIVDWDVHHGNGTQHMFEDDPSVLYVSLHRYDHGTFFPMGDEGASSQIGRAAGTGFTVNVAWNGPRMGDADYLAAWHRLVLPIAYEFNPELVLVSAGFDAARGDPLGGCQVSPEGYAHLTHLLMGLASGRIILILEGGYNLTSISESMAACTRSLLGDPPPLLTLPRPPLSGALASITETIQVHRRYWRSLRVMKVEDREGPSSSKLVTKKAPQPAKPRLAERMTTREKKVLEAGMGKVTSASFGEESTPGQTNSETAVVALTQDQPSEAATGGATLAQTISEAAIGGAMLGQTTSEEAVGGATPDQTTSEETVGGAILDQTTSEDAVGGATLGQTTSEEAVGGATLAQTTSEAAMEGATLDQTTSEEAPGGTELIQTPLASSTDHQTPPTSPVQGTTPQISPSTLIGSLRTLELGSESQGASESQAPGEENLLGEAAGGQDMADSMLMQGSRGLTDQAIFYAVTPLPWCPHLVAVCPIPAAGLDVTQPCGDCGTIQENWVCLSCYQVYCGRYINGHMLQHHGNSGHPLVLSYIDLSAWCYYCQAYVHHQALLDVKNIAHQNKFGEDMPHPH

[4] = biological target: T2, HDAC8 (Homo sapiens, UniProt Q9BY41); experiment: HDAC inhibition, HDAC8; assay type: biochemical
T2 sequence (Q9BY41 1-377): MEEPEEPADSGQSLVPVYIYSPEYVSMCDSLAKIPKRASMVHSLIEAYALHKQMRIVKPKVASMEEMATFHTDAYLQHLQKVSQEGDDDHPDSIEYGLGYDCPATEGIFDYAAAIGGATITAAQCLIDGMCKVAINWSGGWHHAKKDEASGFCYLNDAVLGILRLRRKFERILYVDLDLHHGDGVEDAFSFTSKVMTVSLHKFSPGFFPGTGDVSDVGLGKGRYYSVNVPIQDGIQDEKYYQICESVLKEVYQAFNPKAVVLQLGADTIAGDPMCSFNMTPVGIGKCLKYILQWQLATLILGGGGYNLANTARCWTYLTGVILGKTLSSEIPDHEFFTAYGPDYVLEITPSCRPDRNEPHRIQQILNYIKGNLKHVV

[5] = tested on: Hep-G2; experiment: Cell growth inhibition, Hep-G2; assay type: cell-based; conditions: Homo sapiens, HepG2, NI = No Inhibition at 100 uM
[6] = tested on: VERO; experiment: Cell growth inhibition, VERO; assay type: cell-based; conditions: Chlorocebus sabaeus, NI = No Inhibition at 100 uM
[7] = tested on: A549; experiment: Cell growth inhibition, A549; assay type: cell-based; conditions: Homo sapiens, NI = No Inhibition at 100 uM

Sequence of HDAC2 (Q92769 whole entry): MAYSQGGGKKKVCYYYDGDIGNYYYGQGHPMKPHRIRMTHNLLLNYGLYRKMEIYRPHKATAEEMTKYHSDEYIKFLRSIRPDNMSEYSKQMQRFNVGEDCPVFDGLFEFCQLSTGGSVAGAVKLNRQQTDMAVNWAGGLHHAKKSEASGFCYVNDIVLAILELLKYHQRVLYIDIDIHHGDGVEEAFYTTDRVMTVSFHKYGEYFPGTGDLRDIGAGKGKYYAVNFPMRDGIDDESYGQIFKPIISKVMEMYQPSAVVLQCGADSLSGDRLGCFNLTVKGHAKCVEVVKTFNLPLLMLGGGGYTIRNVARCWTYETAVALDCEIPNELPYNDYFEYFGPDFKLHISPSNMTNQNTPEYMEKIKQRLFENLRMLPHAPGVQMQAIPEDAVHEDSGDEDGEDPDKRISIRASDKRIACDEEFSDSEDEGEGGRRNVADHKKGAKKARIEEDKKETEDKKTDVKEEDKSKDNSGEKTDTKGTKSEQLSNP
Sequence of HDAC1 (Q13547 whole entry): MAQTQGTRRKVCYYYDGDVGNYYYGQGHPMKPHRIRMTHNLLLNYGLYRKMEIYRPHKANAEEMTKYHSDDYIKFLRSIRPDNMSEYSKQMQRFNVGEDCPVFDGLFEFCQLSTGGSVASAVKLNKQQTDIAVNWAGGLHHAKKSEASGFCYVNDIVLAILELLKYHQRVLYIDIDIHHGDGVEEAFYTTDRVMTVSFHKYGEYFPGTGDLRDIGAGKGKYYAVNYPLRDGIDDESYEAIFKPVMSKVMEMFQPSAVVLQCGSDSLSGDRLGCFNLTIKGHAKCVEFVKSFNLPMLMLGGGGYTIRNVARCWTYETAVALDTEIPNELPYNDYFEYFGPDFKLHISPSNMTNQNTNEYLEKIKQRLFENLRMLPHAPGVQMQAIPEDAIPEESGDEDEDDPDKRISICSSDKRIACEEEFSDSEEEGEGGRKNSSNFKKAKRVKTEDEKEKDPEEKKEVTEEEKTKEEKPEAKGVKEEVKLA

Work on `CC(=O)OC[C@H]1OC(Oc2ccc(-c3cn(CCCCCCC(=O)NO)nn3)cc2)C(OC(C)=O)[C@@H](OC(C)=O)[C@@H]1OC(C)=O` (stereo in doubt) [STR-V-176, (2R,3R,4S,5R,6S)-2-(acetoxymethyl)-6-(4-(1-(7-(hydroxyamino)-7-oxoheptyl)-1H-1,2,3-triazol-4-yl)phenoxy)tetrahydro-2H-pyran-3,4,5-triyl triacetate] yielded an IC50 [1] of 4.2 nM, an IC50 [2] of 1.43 nM and an IC50 [3] of 1.05 nM. For the same compound, the IC50 [4] was 271 nM.

`CC(=O)OC[C@H]1OC(Oc2ccc3cc(-c4cn(CCCCCCC(=O)NO)nn4)ccc3c2)C(OC(C)=O)[C@@H](OC(C)=O)[C@@H]1OC(C)=O` (stereo in doubt) [STR-V-177, (2R,3R,4S,5R,6S)-2-(acetoxymethyl)-6-((6-(1-(7-(hydroxyamino)-7-oxoheptyl)-1H-1,2,3-triazol-4-yl)naphthalen-2-yl)oxy)tetrahydro-2H-pyran-3,4,5-triyl triacetate] was tested, and the IC50 [1] was 13.2 nM, the IC50 [2] was 2.2 nM and the IC50 [3] was 1.65 nM. For the same compound, the IC50 [4] was 718 nM.

`CC(=O)OC[C@H]1O[C@H](Oc2ccc(-c3cn(CCCCCCC(=O)NO)nn3)cc2)[C@H](OC(C)=O)[C@@H](OC(C)=O)[C@@H]1OC(C)=O` [Compound 1] gave an IC50 [5] of 10.1 ± 1.2 µM, an IC50 [6] greater than 100 µM and an IC50 [7] greater than 100 µM.

Compound `O=C(CCCCCCn1cc(-c2ccc(O[C@H]3O[C@H](CO)[C@@H](O)[C@H](O)[C@H]3O)cc2)nn1)NO` [Compound 2] has an IC50 [5] of 10.4 ± 0.6 µM, an IC50 [6] of 76.4 ± 0.2 µM and an IC50 [7] of 100 ± 0.1 µM.

With `O=C(CCCCCCn1cc(-c2ccc3cc(O[C@H]4O[C@H](CO)[C@@H](O)[C@H](O)[C@H]4O)ccc3c2)nn1)NO` [Compound 3] the IC50 [5] was 6.7 ± 1.6 µM, the IC50 [6] was 34.1 ± 3 µM and the IC50 [7] was 77.2 ± 4.3 µM.

`CC(=O)OC[C@H]1O[C@H](Oc2ccc(-c3cn(CCCCCCC(=O)NO)nn3)cc2)[C@@H](OC(C)=O)[C@@H](OC(C)=O)[C@@H]1OC(C)=O` [Compound 4] was tested, and the IC50 [5] was 8 ± 0.9 µM, the IC50 [6] was 77.4 ± 5.6 µM and the IC50 [7] was 64.7 ± 7 µM.

Compound `O=C(CCCCCCn1cc(-c2ccc(O[C@H]3O[C@H](CO)[C@@H](O)[C@H](O)[C@@H]3O)cc2)nn1)NO` [Compound 5] has an IC50 [5] of 22.3 ± 2 µM, an IC50 [6] of 65.5 ± 8.3 µM and an IC50 [7] greater than 100 µM.

For `CC(=O)OC[C@H]1O[C@H](Oc2ccc3cc(-c4cn(CCCCCCC(=O)NO)nn4)ccc3c2)[C@@H](OC(C)=O)[C@@H](OC(C)=O)[C@@H]1OC(C)=O` [Compound 6], the IC50 [5] was 7.4 ± 0.9 µM, the IC50 [6] was 19.2 ± 0.9 µM and the IC50 [7] was 39.6 ± 0.6 µM.

Compound `O=C(CCCCCCn1cc(-c2ccc3cc(O[C@H]4O[C@H](CO)[C@@H](O)[C@H](O)[C@@H]4O)ccc3c2)nn1)NO` [Compound 7] has an IC50 [5] of 7.5 ± 0.8 µM, an IC50 [6] of 33.6 ± 5.5 µM and an IC50 [7] of 20.1 ± 1.1 µM.

`O=C(/C=C/c1ccc2cc(O[C@H]3O[C@H](CO)[C@@H](O)[C@H](O)[C@H]3O)ccc2c1)NO` [Compound 8] was tested, and the IC50 [5] was 66.1 µM, the IC50 [6] was 82.1 µM and the IC50 [7] was greater than 100 µM.

With `O=C(CCCCCn1cc(-c2ccc3cc(O[C@H]4O[C@H](CO)[C@@H](O)[C@H](O)[C@@H]4O)ccc3c2)nn1)NO` [Compound 9] the IC50 [5] was 13.5 ± 2.7 µM, the IC50 [6] was greater than 100 µM and the IC50 [7] was 66.7 ± 16.1 µM.

With `O=C(CCCCCn1cc(-c2ccc(O[C@H]3O[C@H](CO)[C@@H](O)[C@H](O)[C@@H]3O)cc2)nn1)NO` [Compound 10] the IC50 [5] was 42.8 ± 0.5 µM, the IC50 [6] was greater than 100 µM and the IC50 [7] was greater than 100 µM.

Work on `O=C(/C=C/c1ccc2cc(O[C@H]3O[C@H](CO)[C@@H](O)[C@H](O)[C@@H]3O)ccc2c1)NO` [Compound 11] yielded an IC50 [5] of 78.5 ± 11.6 µM, an IC50 [6] greater than 100 µM and an IC50 [7] greater than 100 µM.

Work on `O=C(/C=C/c1ccc(O[C@H]2O[C@H](CO)[C@@H](O)[C@H](O)[C@H]2O)cc1)NO` [Compound 12] yielded an IC50 [5] of 45.3 ± 5.9 µM, an IC50 [6] greater than 100 µM and an IC50 [7] greater than 100 µM.

`C[C@H]1C[C@@H](N(C)C)[C@H](O)C(Oc2ccc(-c3cn(CCCCCCC(=O)NO)nn3)cc2)O1` (stereo partly drawn) [Compound 13] showed an IC50 [5] of 9.6 ± 3.4 µM, an IC50 [6] of 76.4 µM and an IC50 [7] of 33.7 ± 1.8 µM.

`Nc1ccc(F)cc1NC(=O)CCCCCCn1cc(-c2ccc(O[C@H]3O[C@H](CO)[C@@H](O)[C@H](O)[C@H]3O)cc2)nn1` [Compound 14] was tested, and the IC50 [6] was greater than 100 µM and the IC50 [7] was 59.9 µM.

With `Nc1cc(F)ccc1NC(=O)CCCCCCn1cc(-c2ccc(O[C@H]3O[C@H](CO)[C@@H](O)[C@H](O)[C@H]3O)cc2)nn1` [Compound 15] the IC50 [5] was roughly 100 µM, the IC50 [6] was greater than 100 µM and the IC50 [7] was greater than 100 µM.

With `Nc1ccc(-c2cccs2)cc1NC(=O)CCCCCCn1cc(-c2ccc(O[C@H]3O[C@H](CO)[C@@H](O)[C@H](O)[C@H]3O)cc2)nn1` [Compound 16] the IC50 [5] was greater than 100 µM, the IC50 [6] was greater than 100 µM and the IC50 [7] was 49.5 µM.

In the case of `O=C(CCCCCn1cc(-c2ccc(O[C@H]3O[C@H](CO)[C@@H](O)[C@H](O)[C@@H]3O)cc2)nn1)NO` [STR-II-29], the IC50 [1] is reported as 146 nM, the IC50 [2] is reported as 68.2 nM and the IC50 [3] is reported as 6.45 nM. It also gave an IC50 [4] of 3590 nM.

Work on `O=C(CCCCCn1cc(-c2ccc3cc(O[C@H]4O[C@H](CO)[C@@H](O)[C@H](O)[C@@H]4O)ccc3c2)nn1)NO` [STR-II-35] yielded an IC50 [1] of 47.1 nM, an IC50 [2] of 26.8 nM and an IC50 [3] of 2.03 nM. The IC50 [4] was 1970 nM.

For `O=C(CCCCCCn1cc(-c2ccc3cc(O[C@H]4O[C@H](CO)[C@@H](O)[C@H](O)[C@@H]4O)ccc3c2)nn1)NO` [STR-II-36], the IC50 [1] was 10.4 nM, the IC50 [2] was 3.28 nM and the IC50 [3] was 0.719 nM. It also gave an IC50 [4] of 319 nM.

Compound `O=C(/C=C/c1ccc2cc(O[C@H]3O[C@H](CO)[C@@H](O)[C@H](O)[C@H]3O)ccc2c1)NO` [STR-V-115] has an IC50 [1] of 1030 nM, an IC50 [2] of 427 nM and an IC50 [3] of 16.5 nM. For the same compound, the IC50 [4] was 461 nM.

Compound `O=C(/C=C/c1ccc(O[C@H]2O[C@H](CO)[C@@H](O)[C@H](O)[C@H]2O)cc1)NO` [STR-V-121] has an IC50 [1] of 6500 nM, an IC50 [2] of 3840 nM and an IC50 [3] of 75.4 nM. The IC50 [4] was 1820 nM.

`O=C(CCCCCCn1cc(-c2ccc(O)cc2)nn1)NO` [STR-V-183, N-hydroxy-7-(4-(4-hydroxyphenyl)-11-1-1,2,3-triazol-1-yl)heptanamide, reference compound] was tested, and the IC50 [1] was 27.2 nM, the IC50 [2] was 12.2 nM and the IC50 [3] was 1.05 nM. For the same compound, the IC50 [4] was 1960 nM.

For “(2R,3R,4S,5R,6R)-2-(acetoxymethyl)-6-(4-(1-(7-(((tert-butyldiphenylsilyl)oxy)-amino)-7-oxoheptyl)-1H-1,2,3-triazol-4-yl)phenoxy)tetrahydro-2H-pyran-3,4,5-triyl triacetate [STR-V-167]”, the IC50 [1] was 66.4 nM, the IC50 [2] was 31.8 nM and the IC50 [3] was 2.61 nM. The IC50 [4] was 311 nM.

“(2S,3R,4S,6R)-4-(dimethylamino)-2-(4-(1-(7-(hydroxyamino)-7-oxoheptyl)-1H-1,2,3-triazol-4-yl)phenoxy)-6-methyltetrahydro-2H-pyran-3-yl acetate [STR-V-165]” gave an IC50 [1] of 27.5 nM, an IC50 [2] of 10.3 nM and an IC50 [3] of 5.22 nM. For the same compound, the IC50 [4] was 806 nM.
